# Values of other authors in US20250295156A1, “LOADED GRANULES, THEIR PROCESS OF PRODUCTION AND THEIR USES” (Evie SA, priority 2019, published 2025).
# Tests used:
# [1] = humans, orally; no reported psychomotor slowing, negative mood effects, or vital sign abnormalities (Bergamaschi et al., 2011)
# [2] = target: cannabinoid CB2 receptor (Homo sapiens, UniProt P34972)
# Sequence of cannabinoid CB2 receptor (P34972 whole entry): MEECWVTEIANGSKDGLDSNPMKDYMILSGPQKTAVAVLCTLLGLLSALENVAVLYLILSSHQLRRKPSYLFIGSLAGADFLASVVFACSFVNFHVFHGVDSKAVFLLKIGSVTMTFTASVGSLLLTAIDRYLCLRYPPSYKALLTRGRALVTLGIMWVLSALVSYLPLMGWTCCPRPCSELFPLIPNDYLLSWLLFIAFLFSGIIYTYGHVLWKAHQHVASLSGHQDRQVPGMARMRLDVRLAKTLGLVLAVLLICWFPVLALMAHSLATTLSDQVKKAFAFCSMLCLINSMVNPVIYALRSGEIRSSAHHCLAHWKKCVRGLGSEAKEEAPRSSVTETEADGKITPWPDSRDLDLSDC
smiles,measurement,setting,value
C=C(C)[C@@H]1CCC(C)=C[C@H]1c1c(O)cc(CCCCC)cc1O [Cannabidiol],well tolerated dose,[1],up to 1500 mg/day
same,affinity for CB2 receptor,[2],very low affinity
